Test systems include UACC-62 melanoma; OVCAR-5 ovarian; OVCAR-4 ovarian; RXF 393 renal; TK-10 renal; LOX IMVI melanoma; NCI-H522 lung; UO-31 renal; HCT-15 colon; KM12 colon.
Holding throughout (experiment): NCI anticancer screen, dose series, 48 h

Each structure is given as a SMILES string.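 Values below derive from 48-hour exposures of cells grown in 96-well plates, with endpoints linearly interpolated between the two concentrations bracketing the appropriate inhibition level. GI50: concentration for 50% inhibition of growth. Definition used: TGI = concentration required for complete inhibition of growth.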

On to `Cc1ccc(N(C(=O)CC(=O)N2N=C(c3ccccc3)C(N=Nc3ccc([N+](=O)[O-])cc3)C2=O)C(=O)c2ccc(Cl)cc2)cc1` (centres undefined), for which the TGI is greater than 100 µM in the experiment with UACC-62 melanoma; greater than 45.3 µM in the experiment on OVCAR-5 ovarian; greater than 100 µM in the experiment on OVCAR-4 ovarian; 10.9 µM in the experiment on RXF 393 renal; greater than 51.4 µM in the experiment with TK-10 renal; 15.7 µM in the experiment with LOX IMVI melanoma. Also, the TGI with NCI-H522 lung is 9.76 µM; with UO-31 renal it was greater than 100 µM; in the experiment on HCT-15 colon it was greater than 48.6 µM; in the experiment with KM12 colon, greater than 78.9 µM.
Take `C=C1C(=O)O[C@H]2[C@H]1CC/C(COC(=O)C(=O)c1cn(C)c3ccc(OC)cc13)=C\CC[C@@]1(C)O[C@@H]21`: the GI50 in the experiment on UACC-62 melanoma was 2.8 µM; with OVCAR-5 ovarian it was 6.12 µM; in the experiment with OVCAR-4 ovarian, 5.2 µM; in the experiment on RXF 393 renal, 2.02 µM; with TK-10 renal it was 4.79 µM; in the experiment with LOX IMVI melanoma, 1.57 µM. In addition, the GI50 was 5.02 µM with NCI-H522 lung, 2.42 µM in the experiment with UO-31 renal, 1.75 µM in the experiment on HCT-15 colon and 6.41 µM in the experiment with KM12 colon. The TGI with UACC-62 melanoma came out at 7.08 µM; in the experiment with OVCAR-5 ovarian, 13.6 µM; with OVCAR-4 ovarian, 25.5 µM; in the experiment with RXF 393 renal it was 3.95 µM; in the experiment on TK-10 renal it was 13.2 µM; in the experiment with LOX IMVI melanoma, 2.62 µM. Moreover, the TGI with NCI-H522 lung was determined as 9.16 µM; in the experiment on UO-31 renal it was 6.02 µM; in the experiment with HCT-15 colon it was 3.23 µM; in the experiment with KM12 colon, 13.3 µM.
Turning to `NCC(=O)CCC(=O)O`, the GI50 in the experiment on UACC-62 melanoma, in the experiment on OVCAR-5 ovarian, in the experiment with OVCAR-4 ovarian, in the experiment with RXF 393 renal, in the experiment with TK-10 renal and with LOX IMVI melanoma was greater than 100 µM in each case. Also, the GI50 in the experiment on NCI-H522 lung, with UO-31 renal, in the experiment with HCT-15 colon and with KM12 colon was greater than 100 µM in each case. Moreover, the TGI in the experiment with UACC-62 melanoma, in the experiment with OVCAR-5 ovarian, in the experiment on OVCAR-4 ovarian, in the experiment on RXF 393 renal, in the experiment on TK-10 renal and with LOX IMVI melanoma was greater than 100 µM throughout. Moreover, the TGI in the experiment on NCI-H522 lung, in the experiment with UO-31 renal, in the experiment on HCT-15 colon and with KM12 colon was greater than 100 µM in each case.
Regarding `Cc1ccc(-n2c(-c3ccc(Cl)cc3)cs/c2=N\NC(=O)COc2n[nH]c(=O)c3ccccc23)cc1`, the GI50 is 23.4 µM in the experiment with UACC-62 melanoma; greater than 100 µM in the experiment with OVCAR-5 ovarian; greater than 100 µM in the experiment with OVCAR-4 ovarian; 30.8 µM in the experiment on RXF 393 renal; 52.7 µM with TK-10 renal; greater than 100 µM in the experiment on LOX IMVI melanoma. The GI50 in the experiment on NCI-H522 lung, in the experiment with UO-31 renal, in the experiment on HCT-15 colon and in the experiment with KM12 colon was greater than 100 µM in each case. The TGI in the experiment on UACC-62 melanoma, in the experiment on OVCAR-5 ovarian, in the experiment with OVCAR-4 ovarian, in the experiment with RXF 393 renal, in the experiment with TK-10 renal and with LOX IMVI melanoma was greater than 100 µM throughout. In addition, the TGI in the experiment with NCI-H522 lung, in the experiment on UO-31 renal, with HCT-15 colon and with KM12 colon was greater than 100 µM in each case.
For the molecule `C=C1CO[C@@H]2C[C@@H]1CCC1(C)OC1CC/C(C)=C/CC[C@@]2(C)O` (some centres undefined), the GI50 in the experiment with UACC-62 melanoma is 28.2 µM; in the experiment with OVCAR-5 ovarian, greater than 100 µM; in the experiment on OVCAR-4 ovarian, 20.9 µM; in the experiment with RXF 393 renal it was 23.6 µM; in the experiment on TK-10 renal, greater than 100 µM; with LOX IMVI melanoma it was 7.55 µM. Moreover, the GI50 with NCI-H522 lung is 30.5 µM; with UO-31 renal, 15.1 µM; in the experiment on HCT-15 colon, 35.8 µM; in the experiment with KM12 colon, 17.7 µM. Besides, the TGI with UACC-62 melanoma is greater than 71.2 µM; in the experiment with OVCAR-5 ovarian, greater than 100 µM; with OVCAR-4 ovarian it was 59.6 µM; in the experiment on RXF 393 renal it was 64.1 µM; with TK-10 renal, greater than 100 µM; in the experiment on LOX IMVI melanoma, 21.4 µM. The TGI in the experiment with NCI-H522 lung was greater than 76.9 µM; with UO-31 renal, 29.5 µM; in the experiment on HCT-15 colon, greater than 87 µM; with KM12 colon it was 42 µM.
Turning to `COc1ccc(-c2c(C#N)c(N)nc3c2CCCc2ccc(F)cc2-3)cc1OC`, the GI50 in the experiment with UACC-62 melanoma is less than 0.0169 µM; in the experiment on OVCAR-5 ovarian, 8.97 µM; in the experiment on OVCAR-4 ovarian, 1.28 µM; in the experiment on RXF 393 renal, 0.0586 µM; with TK-10 renal it was less than 0.0163 µM; in the experiment on LOX IMVI melanoma it was less than 0.0422 µM. Moreover, the GI50 in the experiment with NCI-H522 lung is less than 0.01 µM; in the experiment on UO-31 renal, 0.148 µM; in the experiment on HCT-15 colon, less than 0.0497 µM; in the experiment on KM12 colon it was less than 0.01 µM. In addition, the TGI in the experiment with OVCAR-5 ovarian is greater than 100 µM; with OVCAR-4 ovarian, greater than 29.9 µM; in the experiment on RXF 393 renal, greater than 82.9 µM; in the experiment on TK-10 renal, 1.7 µM; in the experiment on LOX IMVI melanoma, 19.6 µM; in the experiment with NCI-H522 lung it was 33.5 µM. In addition, the TGI with UO-31 renal is greater than 100 µM; in the experiment with HCT-15 colon, 0.504 µM; with KM12 colon it was 2.58 µM.

Source of the values: PubChem BioAssay (NCI).
